Assay results as given in patent US11918822B2, “Compositions and methods for enhancing the biological response to chemical agents and physical stimuli” (The Research Foundation for the State University of New York, priority 2010, dated 2024).

Tested on: C3H10T1/2 embryonic mesenchymal stem cells
Assay: Adipogenesis of mesenchymal stem cells in adipogenic medium (adiponectin, PPARγ immunoblots, lipid granules)
Format: cell-based
Protocol: C3H10T1/2 embryonic mesenchymal stem cells were maintained in growth medium (α-MEM, 10% FBS, 100 µg/ml penicillin/streptomycin). Cells were plated at a density of 6,000-10,000 cells per cm^2 in collagen-I coated silicone membrane plates and cultured for two days before loading protocols began. Adipogenic medium included 0.1 μM dexamethasone, 5 μg/ml insulin, and in some cases, 50 μM indomethcin. If noted, MSC wee transfected with siRNA (100 nm) in serum-free OptiMEM overnight before replacing the medium. Multi-potential medium contained 50 μg/ml ascorbic acid, 1 μM β-glycerophosphate, 10 nM dexamethasone, nM all trans-retinoic acid, 5 μg/mi insulin, 0.5 mM 3-isobutyl-1-methylxanthine (IBMX).
Low Intensity Vibration (LIV): To deliver LIV to cultured MSC, an amplified loudspeaker generated controlled 90 Hz 0.6 g (where 1.0 g is Earth's gravitational field, or […]) standing wave accelerations/decelerations through the wells of culture dishes. Dishes were removed from the incubator during the loading periods (up to three times per day) and set on the lab-bench (control) or, for LIV, on the loudspeaker.
Western blotting: Details were as in Sen, et al. (Endocrinology 42:6065-6075 (2008)). Antibodies included those directed against active β-catenin (Upstate, Temecula, CA), total […] (BD, Bedford, MA), total-GSK3β Chemicon, Billerica, MA), aP2, PPARγ, adiponectin, COX2, NFATc1 and tubulin (Santa Cruz, CA). Densitometry was determined using NIH ImageJ, 1.37v.
Histochemical Staining: After fixation in 2% formaldehyde, cells were rinsed before staining for cytoplasmic triglyceride droplets with oil-red-O.

O=C1NC(=O)C(c2ccccc2[N+](=O)[O-])=C1Nc1ccc(O)c(Cl)c1 [SB415286]
effect on adipogenesis (MSC in adipogenic medium): prevention of adipogenesis | effect on adipogenesis when β-catenin is knocked down (MSC with siRNA targeting β-catenin (+siCat)): blocked by targeting β-catenin

COc1ccc2c(c1)c(CC(=O)O)c(C)n2C(=O)c1ccc(Cl)cc1 [indonethacin]
time to adipogenesis (rate of adipogenesis) after addition to adipogenic media (added to adipogenic media, without it 7-8 days): 4 to 5 days

B1: DKK1: protein from R & D Systems added at doses known to inhibit Wnt binding Lrp receptors (protein, UniProt O94907 32-266, looked up)
Dickkopf-related protein 1: TLNSVLNSNAIKNLPPPLGGAAGHPGSAVSAAPGILYPGGNKYQTIDNYQPYPCAEDEECGTDEYCASPTRGGDAGVQICLACRKRRKRCMRHAMCCPGNYCKNGICVSSDQNHFRGEIEETITESFGNDHSTLDGYSRRTTLSSKMYHTKGQEGSVCLRSSDCASGLCCARHFWSKICKPVLKEGQVCTKHRRKGSHGLEIFQRCYCGEGLSCRIQKDHHQASNSSRLHTCQRH
effect on LIV's ability to inhibit adipogenesis (added to LIV treated cultures at doses known to inhibit Wnt binding Lrp receptors): failed to block LIV's ability to inhibit adipogenesis
